Source: US20090306142A1, “METHODS TO CONTROL QoI-RESISTANT FUNGAL PATHOGENS” (DOW AGROSCIENCES LLC, priority 2008, published 2009)
≈ marks a conversion by molar mass, not a printed value. Like-named read-outs stand apart in the source and are kept apart here.

How the values were obtained:
[1] = test system: QoI-resistant SEPTTR isolates ('G143A'); test: in vitro fungitoxicity, panel of SEPTTR isolates, QoI-resistant; settings: for fold less active against QoI-resistant than QoI-sensitive isolates: resistant vs sensitive; for mean EC50, QoI-resistant (n = 14): mean of 14 QoI-resistant isolates
Source text: (§1) A panel of 31 SEPTTR isolates was used in in vitro fungitoxicity experiments. Most of the used isolates were isolated from wheat in the UK from 2001 to 2005.

[2] = test system: QoI-sensitive SEPTTR isolates ('WT'); test: in vitro fungitoxicity, panel of SEPTTR isolates, QoI-sensitive; settings: for mean EC50, QoI-Sensitive (n = 17): mean of 17 QoI-sensitive isolates
Source text: as §1

[3] = test system: SEPTTR field isolate LARS 15; test: in vitro fungitoxicity, microtiter plate assay, strobilurin-sensitive isolate; settings: for LARS 15 EC50: isolate LARS 15, sensitive to strobilurins; for activity against the LARS 15 strain (in words): isolate LARS 15
[4] = test system: SEPTTR field isolate R2004-6 (G143A mutation in cytochrome b); test: in vitro fungitoxicity, microtiter plate assay, strobilurin-resistant isolate; settings: for R2004-6 EC50: isolate R2004-6, G143A, resistant to strobilurins; for activity against the QoI-resistant strain R2004-6 (in words): isolate R2004-6
[5] = test system: SEPTTR field isolate R2004-6 (G143A mutation in cytochrome b)
[6] = test system: QoI-resistant SEPTTR isolates; test: in-planta control of SEPTTR on wheat cultivar Riband, QoI-resistant isolates; assay type: in vivo, Septoria tritici; settings: visual inspection 21 days after inoculation

Molecule | LARS 15 EC50 [3] [ppm] | R2004-6 EC50 [4] [ppm] | R2004-6 EC50 [5] [ppm] | also measured
Fc1ccc([C@]2(Cn3cncn3)O[C@H]2c2ccccc2Cl)cc1 (racemic) [Epoxiconazole, epoxiconazole] | – | – | – | EC50 ([1]; Zymoseptoria tritici, read-out: mean EC50, QoI-resistant (n = 14)): 0.589 µg/mL (≈ 1.79 µM); fold less active against QoI-resistant than QoI-sensitive isolates ([1]; ratio of mean EC50 values): 1.7 fold; EC50 ([2]; Zymoseptoria tritici, read-out: mean EC50, QoI-Sensitive (n = 17)): 0.351 µg/mL (≈ 1.06 µM)
CO/C=C(/C(=O)OC)c1ccccc1Oc1cc(Oc2ccccc2C#N)ncn1 [Azoxystrobin, azoxystrobin] | 0.011 | 3.00 | – | mean EC50, QoI-resistant (n = 14) [1]: 9.077 µg/mL; fold less active against QoI-resistant than QoI-sensitive isolates ([1]; ratio of mean EC50 values): 160 fold; mean EC50, QoI-Sensitive (n = 17) [2]: 0.057 µg/mL
CCC1(C)CC(NC(=O)c2cccc(NC=O)c2O)CC(C)(C)C1 (stereo not shown) [Compound 2] | 0.0006 | – | <0.0005 | –
antimycin A | 0.021 | 0.011 | – | –
COc1ccnc(C(=O)N[C@H]2COC(=O)[C@H](Cc3ccccc3)[C@@H](OC(=O)C(C)C)[C@H](C)OC2=O)c1OCOC(=O)C(C)C [Compound 1] | 0.169 | 0.122 | – | breaking rate for control of SEPTTR infection ([6]; isolate G3-03, QoI R): 0.9 ppm; breaking rate for control of SEPTTR infection ([6]; isolate TwistB-02, QoI R): 0.3 ppm; mean EC50, QoI-resistant (n = 14) [1]: 0.021 µg/mL; fold more active against QoI-resistant than QoI-sensitive isolates ([1]; ratio of mean EC50 values, sensitive vs resistant): 1.7 fold; activity against the LARS 15 strain (in words) [3]: highly active; activity against the QoI-resistant strain R2004-6 (in words) [4]: highly active; mean EC50, QoI-Sensitive (n = 17) [2]: 0.035 µg/mL
COc1ccnc(C(=O)NC2CCCC(Sc3ccc(C(C)(C)C)cc3)C2)c1O (stereo not shown) [Compound 3] | 0.049 | – | 0.059 | –
CO/N=C(/C(=O)OC)c1ccccc1COc1ccccc1C [Kresoxim-methyl, kresoxim-methyl] | <0.005 | – | >5 | –
C[C@@]1(c2ccc(Oc3ccccc3)cc2)OC(=O)N(Nc2ccccc2)C1=O (racemic) [Famoxadone, famoxadone] | 0.136 | – | >5 | –
UK2A [UK-2A] | 0.037 | 0.029 | – | activity against the LARS 15 strain (in words) [3]: highly active; activity against the QoI-resistant strain R2004-6 (in words) [4]: highly active
